Measurements from ChEMBL document CHEMBL1131541, “New synthetic inhibitors of microtubule depolymerization” (1998).
Active and inactive are the calls of the source. The rule behind the calls is not given here.

Tests used:
[1] = molecular target: Tubulin beta chain (Bos taurus) (UniProt Q6B856); test: Compound was tested for its effect on microtubule stabilization isolated from bovine brain; not significant
[2] = molecular target: Tubulin beta chain (Bos taurus) (UniProt Q6B856); test: Compound was tested for its effect on microtubule stabilization isolated from bovine brain; compound was inactive
[3] = test system: A498; test: Compound was tested for growth inhibitory activity against A498 cell line; format: functional; settings: Homo sapiens
[4] = test system: COLO 205; test: Compound was tested for growth inhibitory activity against COLO 205 cell line; format: functional; settings: Homo sapiens
[5] = test system: SF-295; test: Compound was tested for growth inhibitory activity against SF-295 cell line; format: functional; settings: Homo sapiens
[6] = test system: HL-60; test: Compound was tested for growth inhibitory activity against HL-60 cell line; format: functional; settings: Homo sapiens
[7] = test system: BT-549; test: Compound was tested for growth inhibitory activity against BT-549 cell line; format: functional; settings: Homo sapiens
[8] = test system: 786-0; test: Compound was tested for growth inhibitory activity against 786-0 cell line; format: functional; settings: Homo sapiens
[9] = test system: KM12; test: Compound was tested for growth inhibitory activity against KM12 cell line; format: functional; settings: Homo sapiens
[10] = test system: UACC-62; test: Compound was tested for growth inhibitory activity against UACC-62 cell line; format: functional; settings: Homo sapiens
[11] = test system: MCF7; test: Compound was tested for growth inhibitory activity against MCF-7 cell line; format: functional; settings: Homo sapiens
[12] = test system: SNB-19; test: Compound was tested for growth inhibitory activity against SNB-19 cell line; format: functional; settings: Homo sapiens
[13] = test system: SK-MEL-2; test: Compound was tested for growth inhibitory activity against SK-MEL-2; format: functional; settings: Homo sapiens
[14] = molecular target: Tubulin beta chain (Bos taurus) (UniProt Q6B856); test: Effect on microtubule stabilization isolated from bovine brain
[15] = test system: MOLT-4; test: Compound was tested for growth inhibitory activity against MOLT-4 cell line; format: functional; settings: Homo sapiens
[16] = test system: SF-539; test: Compound was tested for growth inhibitory activity against SF-539 cell line; format: functional; settings: Homo sapiens
[17] = test system: OVCAR-3; test: Compound was tested for growth inhibitory activity against OVCAR-3 cell line; format: functional; settings: Homo sapiens
[18] = test system: OVCAR-8; test: Compound was tested for growth inhibitory activity against OVCAR-8 cell line; format: functional; settings: Homo sapiens
[19] = test system: NCI-H226; test: Compound was tested for growth inhibitory activity against NCI-H226 cell line; format: functional; settings: Homo sapiens
[20] = test system: MDA-MB-435; test: Compound was tested for growth inhibitory activity against MDA-MB-435 cell line; format: functional; settings: Homo sapiens
[21] = test system: SF-268; test: Compound was tested for growth inhibitory activity against SF-268 cell line; format: functional; settings: Homo sapiens
[22] = test system: SR; test: Compound was tested for growth inhibitory activity against SR cell line; format: functional; settings: Homo sapiens
[23] = test system: HCC 2998; test: Compound was tested for growth inhibitory activity against HCC2998 cell line; format: functional; settings: Homo sapiens
[24] = test system: M14; test: Compound was tested for growth inhibitory activity against M14 cell line; format: functional; settings: Homo sapiens
[25] = test system: NCI-H522; test: Compound was tested for growth inhibitory activity against NCI-H522 cell line; format: functional; settings: Homo sapiens
[26] = test system: U-251; test: Compound was tested for growth inhibitory activity against U251 cell line; format: functional; settings: Homo sapiens
[27] = test system: HT-29; test: Compound was tested for growth inhibitory activity against HT-29 cell line; format: functional; settings: Homo sapiens
[28] = test system: RXF 393; test: Compound was tested for growth inhibitory activity against RXF 393 cell line; format: functional; settings: Homo sapiens
[29] = test system: HCT-15; test: Compound was tested for growth inhibitory activity against HCT-15 cell line; format: functional; settings: Homo sapiens
[30] = test system: UO-31; test: Compound was tested for growth inhibitory activity against UO-31 cell line; format: functional; settings: Homo sapiens
[31] = test system: PC-3; test: Compound was tested for growth inhibitory activity against PC-3 cell line; format: functional; settings: Homo sapiens
[32] = test system: Hs-578T; test: Compound was tested for growth inhibitory activity against HS 578T cell line; format: functional; settings: Homo sapiens
[33] = test system: HOP-62; test: Compound was tested for growth inhibitory activity against HOP-62 cell line; format: functional; settings: Homo sapiens
[34] = test system: NCI/ADR-RES; test: Compound was tested for growth inhibitory activity against MCF-7/ADR cell line; format: functional; settings: Homo sapiens
[35] = test system: SK-MEL-5; test: Compound was tested for growth inhibitory activity against SK-MEL-5 cell line; format: functional; settings: Homo sapiens
[36] = test system: SK-OV-3; test: Compound was tested for growth inhibitory activity against SK-OV-3 cell line; format: functional; settings: Homo sapiens
[37] = molecular target: Tubulin beta chain (Bos taurus) (UniProt Q6B856); test: Compound was tested for its effect on microtubule stabilization isolated from bovine brain; NS: not significant
[38] = test system: SK-MEL-2; test: Compound was tested for growth inhibitory activity against SK-MEL-2 cell line; format: functional; settings: Homo sapiens

Chain of Tubulin beta chain (Bos taurus) (Q6B856 whole entry): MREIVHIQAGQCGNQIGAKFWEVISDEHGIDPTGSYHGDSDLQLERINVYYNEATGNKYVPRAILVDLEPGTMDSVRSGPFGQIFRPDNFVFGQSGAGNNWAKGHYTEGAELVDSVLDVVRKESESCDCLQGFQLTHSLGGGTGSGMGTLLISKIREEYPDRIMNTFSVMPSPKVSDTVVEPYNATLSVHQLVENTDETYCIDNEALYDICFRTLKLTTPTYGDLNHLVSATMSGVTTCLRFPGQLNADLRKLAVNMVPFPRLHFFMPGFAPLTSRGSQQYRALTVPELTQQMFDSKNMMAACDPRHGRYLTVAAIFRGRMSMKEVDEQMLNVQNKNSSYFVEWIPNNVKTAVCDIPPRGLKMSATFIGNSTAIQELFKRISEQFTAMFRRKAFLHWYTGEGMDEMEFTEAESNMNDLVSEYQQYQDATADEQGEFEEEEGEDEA

SMILES | GI50 [4] | GI50 [6] | GI50 [7] | GI50 [8] | GI50 [11] | GI50 [15] | GI50 [17] | GI50 [18] | GI50 [19] | GI50 [20] | GI50 [23] | GI50 [3] | GI50 [5] | GI50 [9] | GI50 [10] | GI50 [12] | GI50 [16] | GI50 [21] | GI50 [22] | GI50 [24] | also measured
C=C1C[C@@]23O[C@]2(c2ccccc21)C1CC(OC(=O)[C@H](O)[C@@H](NC(=O)CC(C)(C)C)c2ccccc2)C3(C)C1(C)C (stereo not given in full) |  |  |  |  |  |  |  |  |  |  |  |  |  |  |  |  |  |  |  |  | Relative stability [1]: inactive
C[C@@H]1C[C@@]23O[C@]2(c2ccccc21)C1CC(OC(=O)[C@H](O)[C@@H](NC(=O)OC(C)(C)C)c2ccccc2)C3(C)C1(C)C (stereo not given in full) |  |  |  |  |  |  |  |  |  |  |  |  |  |  |  |  |  |  |  |  | Relative stability [2]: inactive
COC(=O)N[C@@H](c1ccncc1)[C@@H](O)C(=O)OC1CC2C(C)(C)C1(C)[C@@]13CC(C)c4ccccc4[C@@]21O3 (stereo not given in full) | 1860 nM | 871 nM | 22900 nM | 2750 nM | 2820 nM | 4680 nM | 1860 nM | 2450 nM | 977 nM | 589 nM | 525 nM | 12300 nM | 2090 nM | 933 nM | 2630 nM | 2190 nM | 4680 nM | 3800 nM | 1450 nM | 1740 nM | GI50 [13]: 2570 nM; Relative stability [14]: -5%; GI50 [25]: 813 nM; GI50 [26]: 3980 nM; GI50 [27]: 447 nM; GI50 [28]: 4570 nM; GI50 [29]: 977 nM; GI50 [30]: 562 nM; GI50 [31]: 3020 nM; GI50 [32]: 1480 nM; GI50 [33]: 6170 nM; GI50 [34]: 1910 nM; GI50 [35]: 2340 nM; GI50 [36]: 1910 nM
CCNC(=O)N[C@@H](c1ccccc1)[C@@H](O)C(=O)OC1CC2C(C)(C)C1(C)[C@@]13C[C@H](C)c4ccccc4[C@@]21O3 (stereo not given in full) |  |  |  |  |  |  |  |  |  |  |  |  |  |  |  |  |  |  |  |  | Relative stability [37]: inactive
CC(=O)O[C@H]1C(=O)[C@@]2(C)[C@H]([C@H](OC(=O)c3ccccc3)[C@]3(O)C[C@H](OC(=O)[C@H](O)[C@@H](NC(=O)c4ccccc4)c4ccccc4)C(C)=C1C3(C)C)[C@]1(OC(C)=O)CO[C@@H]1C[C@@H]2O [PACLITAXEL] | 3.16 nM | 5.01 nM | 6.31 nM | 19.9 nM | 3.16 nM | 3.98 nM | 3.16 nM | 5.01 nM | 31.6 nM | 2.51 nM | 3.98 nM | 79.4 nM | 15.8 nM | 3.16 nM | 3.98 nM | 10 nM | 3.16 nM | 7.94 nM | 2.51 nM | 10 nM | GI50 [25]: 3.16 nM; GI50 [38]: 5.01 nM; GI50 [26]: 3.98 nM; GI50 [27]: 2.51 nM; GI50 [28]: 7.94 nM; GI50 [29]: 200 nM; GI50 [30]: 1000 nM; GI50 [31]: 3.98 nM; GI50 [32]: 3.16 nM; GI50 [33]: 15.8 nM; GI50 [34]: 3160 nM; GI50 [35]: 3.98 nM; GI50 [36]: 10 nM
